The record followed here is PubChem BioAssay (NCI).

Values joined by “and” are separate entries in the source; they are usually repeats but may differ in a detail not shown here. Equal values may be shown once.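 Where inhibition never reached the appropriate level, the endpoint shown equals the highest concentration tested. Otherwise, values were interpolated linearly from a five-concentration, 48-hour dose response in 96-well plates. GI50 is the concentration that inhibits growth by half. TGI: concentration producing complete growth inhibition.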

Test systems include 786-0 renal; BT-549 breast; HT29 colon; OVCAR-3 ovarian; OVCAR-5 ovarian; SK-OV-3 ovarian; SNB-19 CNS; T-47D breast; UACC-62 melanoma.
Assay in all cases: NCI anticancer screen, dose series, 48 h

Take `COc1cc2c3c(n(CCCN)c(=O)c2cc1OC)-c1ccccc1C3=O`: the GI50 was 0.396 µM with 786-0 renal; 4.85 µM with BT-549 breast; 0.164 µM with HT29 colon; 0.26 µM in the test with OVCAR-3 ovarian; 14.3 µM in the test with OVCAR-5 ovarian; 5.62 µM with SK-OV-3 ovarian. Further, the GI50 with SNB-19 CNS was 2.95 µM; in the test with T-47D breast, 7.18 µM; with UACC-62 melanoma, 1.73 µM. The TGI was 2.02 µM in the test with 786-0 renal; 13.9 µM in the test with BT-549 breast; 4.2 µM in the test on OVCAR-3 ovarian; 29.2 µM with OVCAR-5 ovarian; 23 µM in the test on SK-OV-3 ovarian; more than 42 µM in the test with SNB-19 CNS. Moreover, the TGI stood at 39 µM with T-47D breast and 16 µM in the test on UACC-62 melanoma.
As to `Clc1ccc(CSC(Cn2ccnc2)c2ccc(Cl)cc2Cl)cc1` (stereo not drawn), the GI50 is 1.61 µM with 786-0 renal; 1.63 µM in the test with BT-549 breast; 1.44 µM with HT29 colon; 1.54 µM in the test on OVCAR-3 ovarian; 2.13 µM in the test with OVCAR-5 ovarian; 1.7 µM with SK-OV-3 ovarian. The figures for the GI50 in the test with SNB-19 CNS, with T-47D breast and in the test with UACC-62 melanoma were 1.52 µM, 0.999 µM and 1.17 µM, respectively. Moreover, the TGI was determined as 3.13 µM in the test on 786-0 renal; 3.05 µM in the test with BT-549 breast; 2.81 µM in the test with HT29 colon; 2.87 µM with OVCAR-3 ovarian; 6.84 µM with OVCAR-5 ovarian; 3.91 µM in the test with SK-OV-3 ovarian. Further, the TGI in the test on SNB-19 CNS amounted to 2.89 µM; with T-47D breast, 2.76 µM; in the test with UACC-62 melanoma it was 2.43 µM.
Take `Cc1c2cc[n+](C)cc2c(C)c2c1sc1ccccc12`: the TGI in the test on 786-0 renal was 2.9 µM; with BT-549 breast, 1.37 µM; with HT29 colon, 25.4 µM; in the test on OVCAR-3 ovarian, 5.43 µM; in the test with OVCAR-5 ovarian, 15.6 µM; in the test with SK-OV-3 ovarian, 14.3 µM. In addition, the TGI in the test with SNB-19 CNS was 2 µM; in the test on T-47D breast, 3.67 µM; in the test with UACC-62 melanoma, 4.25 µM.
As to `C/C(=N\NC(=O)c1sc(=S)n(C)c1N)c1cc2ccccc2o1`, the GI50 with 786-0 renal was 14.9 µM; in the test with BT-549 breast, 18.3 µM; in the test on HT29 colon, 5.05 µM; in the test on OVCAR-3 ovarian, 15.5 µM; with OVCAR-5 ovarian, 16.4 µM; in the test with SK-OV-3 ovarian, 20.9 µM. Further, the GI50 in the test on SNB-19 CNS was 17.1 µM; in the test with T-47D breast, 18.6 µM; in the test on UACC-62 melanoma, 18.5 µM. Besides, the TGI is 29.8 µM with 786-0 renal; 41.8 µM in the test with BT-549 breast; 18.9 µM in the test with HT29 colon; 29.9 µM with OVCAR-3 ovarian; 48.2 µM in the test on OVCAR-5 ovarian; 55.6 µM in the test with SK-OV-3 ovarian. In addition, the TGI was 45.6 µM in the test with SNB-19 CNS, more than 100 µM in the test with T-47D breast and 61.8 µM in the test with UACC-62 melanoma.
Turning to `F`, the GI50 in the test on 786-0 renal is 2550 µM; with BT-549 breast it was 3050 µM; with HT29 colon, 2110 µM; in the test with OVCAR-3 ovarian it was more than 6870 µM; in the test on OVCAR-5 ovarian, 2560 µM; in the test with SK-OV-3 ovarian, 3680 µM. Besides, the GI50 in the test on SNB-19 CNS is 6220 µM; with T-47D breast, 2100 µM; in the test on UACC-62 melanoma, 1550 µM. The TGI in the test on 786-0 renal is more than 6870 µM; in the test on BT-549 breast, more than 6870 µM; with HT29 colon, 6180 µM; with OVCAR-3 ovarian, more than 6870 µM; in the test on OVCAR-5 ovarian, more than 6870 µM; with SK-OV-3 ovarian it was more than 6870 µM. Further, the TGI was more than 6870 µM with SNB-19 CNS, 5670 µM with T-47D breast and 3100 µM with UACC-62 melanoma.
With `CC[C@]12CCCN3CCc4c(n(c5ccccc45)C(=O)C1)[C@@H]32`, the TGI with 786-0 renal was more than 56.2 µM; with BT-549 breast it was more than 100 µM; in the test on HT29 colon, more than 52.7 µM; in the test on OVCAR-3 ovarian, 5.81 µM; with OVCAR-5 ovarian, more than 100 µM; in the test with SK-OV-3 ovarian, 87.7 µM. Besides, the TGI in the test with SNB-19 CNS, in the test with T-47D breast and with UACC-62 melanoma was more than 100 µM in each case.
Take `CCN1CCN(Cc2ccc(-c3cc4c(N[C@H](C)c5ccccc5)ncnc4[nH]3)cc2)CC1`: the GI50 in the test with 786-0 renal was 2.02 µM and 1.91 µM; in the test with BT-549 breast it was 6.3 µM and > 10 µM; with HT29 colon, 1.99 µM and 2.41 µM; with OVCAR-3 ovarian, 3.78 µM and 2.05 µM; in the test on OVCAR-5 ovarian, 0.708 µM and 1.61 µM; in the test on SK-OV-3 ovarian, 0.299 µM. Besides, the GI50 in the test with SNB-19 CNS was 6.11 µM and 4.04 µM; in the test with T-47D breast it was 1.36 µM and 0.765 µM; with UACC-62 melanoma, 2.09 µM and 3.75 µM. Further, the TGI in the test on 786-0 renal is 8.93 µM and 7.74 µM; in the test with BT-549 breast it was 22.3 µM and > 10 µM; in the test on HT29 colon, 8.77 µM and > 10 µM; with OVCAR-3 ovarian it was 20.9 µM and > 10 µM; in the test with OVCAR-5 ovarian, 23.9 µM and > 10 µM; with SK-OV-3 ovarian, 11.1 µM. The TGI in the test on SNB-19 CNS was 29.7 µM and > 10 µM; in the test on T-47D breast, 19.2 µM and > 10 µM; in the test on UACC-62 melanoma it was 5.36 µM and > 10 µM.
In the case of `CCCCON(OC(=O)c1ccccc1)C(=O)c1ccccc1`, the GI50 in the test on 786-0 renal, in the test on BT-549 breast, in the test with HT29 colon, in the test on OVCAR-3 ovarian, in the test with OVCAR-5 ovarian and in the test on SK-OV-3 ovarian was more than 100 µM each time. Moreover, the GI50 in the test with SNB-19 CNS, with T-47D breast and in the test on UACC-62 melanoma was more than 100 µM throughout. For the same molecule, the TGI in the test on 786-0 renal, with BT-549 breast, with HT29 colon, in the test on OVCAR-3 ovarian, in the test with OVCAR-5 ovarian and in the test with SK-OV-3 ovarian was more than 100 µM throughout. Further, the TGI with SNB-19 CNS, with T-47D breast and with UACC-62 melanoma was more than 100 µM in each case.
With `O=C1c2ccccc2-c2c1c1ccccc1c(=O)n2CCCCNCCCn1c2c(c3ccccc3c1=O)C(=O)c1ccccc1-2`, the GI50 in the test with 786-0 renal is 0.0318 µM; with BT-549 breast, 1.34 µM; with HT29 colon it was 0.0929 µM; in the test on OVCAR-3 ovarian, 0.509 µM; with OVCAR-5 ovarian it was 0.676 µM; in the test on SK-OV-3 ovarian, 5.35 µM. For the same molecule, the GI50 in the test on SNB-19 CNS is 0.51 µM; in the test with T-47D breast it was 1.32 µM; in the test on UACC-62 melanoma, 0.445 µM. Besides, the TGI in the test with 786-0 renal amounted to 0.699 µM; in the test with BT-549 breast, 4.15 µM; in the test with HT29 colon, 8.95 µM; in the test on OVCAR-3 ovarian it was 2.06 µM; with OVCAR-5 ovarian, 1.54 µM; in the test on SK-OV-3 ovarian, 50 µM. Also, the TGI is 10.4 µM in the test on SNB-19 CNS, 4.86 µM with T-47D breast and 3.22 µM with UACC-62 melanoma.
